The values that follow come from US20230095021A1, “MODULATORS OF TDP-43” (Alteron Therapeutics, Inc., priority 2019, published 2023).

Experiment [1] has as its system Phe508del-CFTR. The experiment is described as follows: Phe508del-CFTR localization, immunofluorescence microscopy, primary bronchial epithelial cells of a cystic fibrosis patient. The conditions noted are these: primary bronchial epithelial cells homozygous for Phe508del-CFTR, 3 days. The class given is cell-based, human. The protocol:
MDA-MB-231 and U-87 MG cells were cultured on cover slips under the conditions as described above. Cells were treated with DMSO or 4 μM ALT-59 for 3 days. Primary human bronchial epithelial cells isolated from cystic fibrosis patient homozygous for Phe508del-CFTR (Lifeline Cell Technology) were cultured on cover slips in BronchiaLife Cell Culture Medium supplemented with BrochiaLife LifeFactors Kit (Lifeline Cell Technology) and maintained at 37° C. in a CO2 incubator. Cells were treated with DMSO, 4 μM ALT-59, 2 μM ALT-308, or 4 μM ALT-410 for 3 days.
Cells were fixed in 4% paraformaldehyde for 15 minutes and permeabilized in 0.1% Triton X-100 for 2 minutes. After being blocked in 5% BSA (Sigma-Aldrich), cells were incubated with anti-CFTR antibody (Alomone Labs) followed by Alexa Fluor 488 anti-rabbit secondary antibody. Reagents were buffered in GIBCO PBS (Phosphate-Buffered Saline). Images were taken using Carl Zeiss LSM 510 Laser Scanning Microscope. Parameters were set identical for all images.

Experiment [2] relates to BACE1. The experiment is described as follows: Screening for ALT-59 derivatives with BACE1 protein levels as indicator, U-87 MG cells. The class given is cell-based. Conditions: 2 days, concentrations as indicated in FIGS. 15-17. Here is the method:
Additional experiments were performed to screen for compounds with higher potency and the ability to penetrate blood brain barrier using BACE1 protein levels as an indicator. U-87 MG cells were cultured as described previously and treated for 2 days with compounds at concentrations as indicated in FIGS. 15-17. Cells were then subjected to Western blotting analysis using anti-BACE1 and anti-beta-actin antibodies.

Regarding `CCCOc1ccc(C2Nc3ccc4ccccc4c3C3=C2C(=O)CCC3)cc1` (stereo not shown) [ALT-410, 5-(4-propoxyphenyl)-2,3,5,6-tetrahydrobenzo[a]phenanthridin-4(1H)-one], the “localization of Phe508del-CFTR on the plasma membrane” value in experiment [1] (4 μM) is on record as “increased localization of Phe508del-CFTR on the plasma membrane”. Further, the BACE1 protein expression result in experiment [2] was “capable of lowering BACE1 expression”.
`CC1(C)CC(=O)C2=C(C1)c1c(ccc3ccccc13)NC2c1ccc(Br)s1` (stereo not shown) [ALT-202, 5-(5-bromothiophen-2-yl)-2,2-dimethyl-2,3,5,6-tetrahydrobenzo[a]phenanthridin-4(1H)-one]: the BACE1 protein expression result in experiment [2] was “capable of lowering BACE1 expression”.
Take `COC(=O)COc1ccc(C2Nc3ccc4ccccc4c3C3=C2C(=O)CCC3)cc1` (stereo not shown) [ALT-411, methyl 2-(4-(4-oxo-1,2,3,4,5,6-hexahydrobenzo[a]phenanthridin-5-yl)phenoxy)acetate]: the BACE1 protein expression result in experiment [2] is given as “capable of lowering BACE1 expression”.
`COc1ccc(C2Nc3ccc4ccccc4c3C3=C2C(=O)CC(C)(C)C3)cc1Br` (stereo not shown) [ALT-307, 5-(3-bromo-4-methoxyphenyl)-2,2-dimethyl-2,3,5,6-tetrahydrobenzo[a]phenanthridin-4(1H)-one]: in experiment [2], the BACE1 protein expression entry is recorded as “capable of lowering BACE1 expression”.
For the compound `O=C1CCCC2=C1C(c1ccc3c(c1)OCO3)Nc1c2ccc2ncccc12` (stereo not shown) [ALT-403, 6-(benzo[d][1,3]dioxol-5-yl)-6,8,9,10-tetrahydrobenzo[c][1,7]phenanthrolin-7(5H)-one], the BACE1 protein expression entry in experiment [2] was “capable of lowering BACE1 expression”.
Same read-out and setting: with `CC1(C)CC(=O)C2=C(C1)C(c1ccc3c(c1)OCO3)Nc1ccc3ccccc3c12` (stereo not shown) [ALT-201, 5-(benzo[d][1,3]dioxol-5-yl)-3,3-dimethyl-3,4,5,6-tetrahydrobenzo[a]phenanthridin-1(2H)-one] the entry was “capable of lowering BACE1 expression”.
For the compound `CC1(C)CC(=O)C2=C(C1)c1c(ccc3ccccc13)NC2c1ccc(C(C)(C)C)cc1` (stereo not shown) [ALT-308, 5-(4-(tert-butyl)phenyl)-2,2-dimethyl-2,3,5,6-tetrahydrobenzo[a]phenanthridin-4(1H)-one], the “localization of Phe508del-CFTR on the plasma membrane” value in experiment [1] (2 μM) is “increased localization of Phe508del-CFTR on the plasma membrane”. The BACE1 protein expression result in experiment [2] was “capable of lowering BACE1 expression”.
As to `C=CCOc1ccc(C2Nc3ccc4ccccc4c3C3=C2C(=O)CC(C)(C)C3)cc1OC` (stereo not shown) [ALT-409, 5-(4-(allyloxy)-3-methoxyphenyl)-2,2-dimethyl-2,3,5,6-tetrahydrobenzo[a]phenanthridin-4(1H)-one], the BACE1 protein expression result in experiment [2] is reported as “capable of lowering BACE1 expression”.
